In patent publication US20240376085A1 (Janssen Pharmaceutica NV, priority 2021, published 2024):

How the values were obtained:
[1] = biological target: T1, IL-17A : IL-17RA binding (Homo sapiens, UniProt Q16552, K93Q); assay: IL-17A(FLAG-tagged):IL-17RA(His-tagged) binding disruption Eu-HTRF assay, Protocol 1; conditions: FLAG-IL-17A 2.5 nM at 2x final concentration; average if tested more than once
T1 construct: Name: IL-17A-Flag
Source text: An antibody directed against the FLAG tag of IL-17A (SEQ ID NO: 1) is labeled with the HTRF donor chromophore (Europium-cryptate). IL-17A is present as a dimer that is “locked into” this quaternary structure due to the formation of loop-spanning […] disulfide bridges. The construct of IL-17RA used in the assay excludes the […] portion of the receptor and is fused to a C-terminal 10×His tag (SEQ ID NO:2). An antibody directed against the His tag of the IL-17RA chimera is labeled with the HTRF acceptor chromophore (“D2”). The fluorescence-resonance energy transfer (FRET) depends on the vicinity of the donor chromophore to the acceptor, and interruption of the binding between the IL-17A and IL-17RA causes the reduction/loss of FRET. Therefore, this assay allows to evaluate the compound effect on the binding IL-17A and IL-17RA by monitoring the fluorescence intensity of donor vs acceptor. The assay was run using either Protocol 1 or Protocol 2 as described below.
Protocol 1. 40 nl of 2-fold serial diluted compound solution for total 22 dilution points is added into each well of a 1536-well, white, low-volume, non-binding plate (Greiner #782904), then 2 μl of FLAG tagged IL-17A at 2× final concentration (2.5 nM) in solution of PBS+0.01% Triton-X100 is added to each well. The assay plate is briefly centrifuged then incubated for 1 h at rt. A mixed solution is prepared containing 2×5 nM 10HIS×IL-17RA, 2×2.5 nM Eu-anti-FLAG (CISBIO), 2×5 nM D2-anti-HIS (CISBIO) in PBS+0.01% Triton-X100+200 mM Potassium Fluoride (Sigma 60238) and 2 μl of mix is added to each well of the assay plate. The plate is briefly centrifuged then incubated for 2 h at rt. The HTRF intensities at the wavelength of donor (620 nm) and acceptor (665 nm) are measured using BMG Pherastar. The ratio between intensities at two wavelengths is calculated and plotted against the compound concentration and the data is fitted to a one-site competition model to yield IC50 of the compound.

[2] = tested on: IL-17A-induced G-CSF production in human normal keratinocyte (NHK); assay: NHK assay: IL-17A-induced G-CSF production in normal human keratinocytes; assay type: cell-based; conditions: Homo sapiens, Keratinocyte, 24 h, IL-17A 5 ng/mL, average if tested more than once
Protocol: IL-17A acts directly on keratinocytes through binding to dimeric receptor IL-17RA/RC and drives the production of a number of inflammatory mediators known to be elevated in psoriasis lesional tissue. IL-17A small molecule inhibitors that block the IL-17A to interact with IL-17R would inhibit the IL-17A signaling in its targeted cells such as keratinocytes. The compound functional activity is evaluated for its impact on IL-17A-induced G-CSF production in human normal keratinocyte (NHK).
Adult normal human keratinocytes are cultured in keratinocyte growth medium (Lonza) in a flask till reaching ˜90% confluence, then cells are transferred to a 384-well plate at density of 3000-4000 cell/well. Recombinant human IL-17A (Gibco PHC9174) is pre-incubated with titrated compound or DMSO for 1 h at rt then added to the cell culture plate. The final concentration of IL-17A is 5 ng/mL and DMSO is 0.2%, in the culture containing 5% FBS. Cells are cultured/treated for 24 h at 37° C. Supernatants are collected and G-CSF production is measured through HTRF technology using Human G-CSF Kit (CisBio). G-CSF concentration was extrapolated from the standard curve and IC50 is determined using GraphPad Prism. Cell viability is also evaluated using CellTiter-Glo kit (Promega) and effect of compound on cell viability is compared to DMSO control.

T1 sequence (Q16552 with tags, fused parts or gaps K93Q): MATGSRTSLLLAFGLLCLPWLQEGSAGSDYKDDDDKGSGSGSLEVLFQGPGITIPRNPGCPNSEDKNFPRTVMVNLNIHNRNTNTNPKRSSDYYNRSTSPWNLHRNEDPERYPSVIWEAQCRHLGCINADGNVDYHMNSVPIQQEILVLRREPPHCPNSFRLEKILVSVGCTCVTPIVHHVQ

SMILES	IC50 [1] [nM]	IC50 [2] [nM]
C[C@@H](NC(=O)CCC(F)(F)F)c1ccc2[nH]c([C@@H](NC(=O)[C@H]3C[C@@H]3C#N)C3CCC(F)(F)CC3)nc2c1 (relative stereo) [Example 103, trans-(1S*,2S*)-2-Cyano-N—((S)-(4,4-difluorocyclohexyl)(5-((R)-1-(4,4,4-trifluorobutanamido)ethyl)-1H-benzo[d]imidazol-2-yl)methyl)cyclopropane-1-carboxamide]	> 100	> 100
C[C@@H](NC(=O)CCC(F)(F)F)c1ccc2[nH]c([C@@H](NC(=O)[C@@H]3C[C@H]3C#N)C3CCC(F)(F)CC3)nc2c1 (relative stereo) [Example 104, trans-(1R*,2R*)-2-Cyano-N—((S)-(4,4-difluorocyclohexyl)(5-((R)-1-(4,4,4-trifluorobutanamido)ethyl)-1H-benzo[d]imidazol-2-yl)methyl)cyclopropane-1-carboxamide]	> 100	> 100
C[C@@H](NC(=O)CCC(F)(F)F)c1ccc2[nH]c([C@@H](NC(=O)[C@H]3C[C@@H]3C(F)(F)F)C3CCC(F)(F)CC3)nc2c1 (relative stereo) [Example 105, trans-(1S*,2S*)—N—((S)-(4,4-Difluorocyclohexyl)(5-((R)-1-(4,4,4-trifluorobutanamido)ethyl)-1H-benzo[d]imidazol-2-yl)methyl)-2-(trifluoromethyl)cyclopropane-1-carboxamide]	> 100	> 100
C[C@@H](NC(=O)CCC(F)(F)F)c1ccc2[nH]c([C@@H](NC(=O)[C@@H]3C[C@H]3C(F)(F)F)C3CCC(F)(F)CC3)nc2c1 (relative stereo) [Example 106, trans-(1R*,2R*)—N—((S)-(4,4-Difluorocyclohexyl)(5-((R)-1-(4,4,4-trifluorobutanamido)ethyl)-1H-benzo[d]imidazol-2-yl)methyl)-2-(trifluoromethyl)cyclopropane-1-carboxamide]	> 100	> 100
C[C@@H](NC(=O)CCC(F)(F)F)c1ccc2[nH]c([C@@H](NC(=O)C3(C)CC3(F)F)C3CCC(F)(F)CC3)nc2c1 (relative stereo) [Example 109, N—((S)-(4,4-Difluorocyclohexyl)(5-((R*)-1-(4,4,4-trifluorobutanamido)ethyl)-1H-benzo[d]imidazol-2-yl)methyl)-2,2-difluoro-1-methylcyclopropane-1-carboxamide]	> 100	> 100
Cc1nonc1C(=O)N[C@@H](CO[C@H](C)C(F)(F)F)c1nc2ccc([C@H](NC(=O)CC3CC(F)(F)C3)C3CC3)cc2[nH]1 (relative stereo) [Example 150, N—((R*)-1-(6-((R)-Cyclopropyl(2-(3,3-difluorocyclobutyl)acetamido)methyl)-1H-benzo[d]imidazol-2-yl)-2-(((R*)-1,1,1-trifluoropropan-2-yl)oxy)ethyl)-4-methyl-1,2,5-oxadiazole-3-carboxamide]	> 100	> 100
C[C@@H](OC[C@H](NC(=O)c1nonc1C1CC1)c1nc2ccc([C@H](NC(=O)CC3CC(F)(F)C3)C3CC3)cc2[nH]1)C(F)(F)F (relative stereo) [Example 155, 4-Cyclopropyl-N—((R*)-1-(6-((R)-cyclopropyl(2-(3,3-difluorocyclobutyl)acetamido)methyl)-1H-benzo[d]imidazol-2-yl)-2-(((R)-1,1,1-trifluoropropan-2-yl)oxy)ethyl)-1,2,5-oxadiazole-3-carboxamide]	< 50	> 100
CC(C)n1nccc1C(=O)N[C@@H](COC(C)C(F)(F)F)c1nc2ccc([C@H](NC(=O)CC3CC(F)(F)C3)C3CC3)cc2[nH]1 (relative stereo) [Example 156, N—((R*)-1-(6-((R)-Cyclopropyl(2-(3,3-difluorocyclobutyl)acetamido)methyl)-1H-benzo[d]imidazol-2-yl)-2-(((R)-1,1,1-trifluoropropan-2-yl)oxy)ethyl)-1-isopropyl-1H-pyrazole-5-carboxamide]	50 to 100	50 to 100
CC(C)n1nccc1C(=O)N[C@@H](CO[C@@H](C)C(F)(F)F)c1nc2ccc([C@H](NC(=O)CC3CC(F)(F)C3)C3CC3)cc2[nH]1 (relative stereo) [Example 158, N—((R*)-1-(6-((R)-Cyclopropyl(2-(3,3-difluorocyclobutyl)acetamido)methyl)-1H-benzo[d]imidazol-2-yl)-2-(((S)-1,1,1-trifluoropropan-2-yl)oxy)ethyl)-1-isopropyl-1H-pyrazole-5-carboxamide]	< 50	> 100
Cc1nonc1C(=O)N[C@@H](COC(C)(C)C(F)(F)F)c1nc2ccc([C@H](NC(=O)CC3CC(F)(F)C3)C3CC3)cc2[nH]1 (relative stereo) [Example 161, N—((R*)-1-(6-((R)-Cyclopropyl(2-(3,3-difluorocyclobutyl)acetamido)methyl)-1H-benzo[d]imidazol-2-yl)-2-((1,1,1-trifluoro-2-methylpropan-2-yl)oxy)ethyl)-4-methyl-1,2,5-oxadiazole-3-carboxamide]	< 50	50 to 100
CCc1nonc1C(=O)N[C@@H](CC(C)(C)C(F)(F)F)c1nc2cc([C@@H](NC(=O)CCC(F)(F)F)C3CC3)ccc2[nH]1 (relative stereo) [Example 189, N—((S*)-1-(5-((S*)-Cyclopropyl(4,4,4-trifluorobutanamido)methyl)-1H-benzo[d]imidazol-2-yl)-4,4,4-trifluoro-3,3-dimethylbutyl)-4-ethyl-1,2,5-oxadiazole-3-carboxamide]	> 100	> 100
CCc1nonc1C(=O)N[C@@H](CC(C)(C)C(F)(F)F)c1nc2cc([C@H](NC(=O)CCC(F)(F)F)C3CC3)ccc2[nH]1 (relative stereo) [Example 190, N—((S*)-1-(5-((R*)-Cyclopropyl(4,4,4-trifluorobutanamido)methyl)-1H-benzo[d]imidazol-2-yl)-4,4,4-trifluoro-3,3-dimethylbutyl)-4-ethyl-1,2,5-oxadiazole-3-carboxamide]	< 50	< 50
Cc1nonc1C(=O)N[C@@H](CC(C)(C)C(F)(F)F)c1nc2cc([C@@H](NC(=O)CCC(F)(F)F)C3CC3)ccc2[nH]1 (relative stereo) [Example 192, N—((S*)-1-(5-((S*)-Cyclopropyl(4,4,4-trifluorobutanamido)methyl)-1H-benzo[d]imidazol-2-yl)-4,4,4-trifluoro-3,3-dimethylbutyl)-4-methyl-1,2,5-oxadiazole-3-carboxamide]	> 100	> 100
Cc1nonc1C(=O)N[C@@H](CC(C)(C)C(F)(F)F)c1nc2cc([C@H](NC(=O)CCC(F)(F)F)C3CC3)ccc2[nH]1 (relative stereo) [Example 193, N—((S*)-1-(5-((R*)-Cyclopropyl(4,4,4-trifluorobutanamido)methyl)-1H-benzo[d]imidazol-2-yl)-4,4,4-trifluoro-3,3-dimethylbutyl)-4-methyl-1,2,5-oxadiazole-3-carboxamide]	< 50	50 to 100
C[C@@H](NC(=O)CCC(F)(F)F)c1ccc2[nH]c([C@@H](NC(=O)c3nnc(CCC(F)(F)F)o3)C3CCC(F)(F)CC3)nc2c1 [Example 187, N—((S)-(4,4-Difluorocyclohexyl)(5-((R)-1-(4,4,4-trifluorobutanamido)ethyl)-1H-benzo[d]imidazol-2-yl)methyl)-5-(3,3,3-trifluoropropyl)-1,3,4-oxadiazole-2-carboxamide]		> 100
